Reference: patent US20190284136A1, “INDOLINE DERIVATIVES” (ViiV HEALTHCARE UK LIMITED, priority 2016, published 2019)

Tested on: HIV
Test: Table 1 IC50 of the examples (assay method not given; patent concerns inhibiting HIV replication)
Type: cell-based
Conditions: Human immunodeficiency virus 1

`Cc1cc2c(c(-c3cc(F)c4c(c3C)CCCO4)c1[C@H](OC(C)(C)C)C(=O)O)CCN2C(=O)c1ccc(C(F)(F)F)c(F)c1` (atropisomer, axis not shown) [Example 140, (S)-2-(tert-Butoxy)-2-((R)-1-(3-fluoro-4-(trifluoromethyl)benzoyl)-4-(8-fluoro-5-methylchroman-6-yl)-6-methylindolin-5-yl)acetic acid] and `Cc1cc2c(c(-c3cc(F)c4c(c3C)CCCO4)c1[C@H](OC(C)(C)C)C(=O)O)CCN2C(=O)c1cccc(C(F)(F)F)c1` (atropisomer, axis not shown) [Example 93, (S)-2-(tert-Butoxy)-2-((R)-4-(8-fluoro-5-methylchroman-6-yl)-6-methyl-1-(3-(trifluoromethyl)benzoyl)indolin-5-yl)acetic acid] are within 1.5-fold of each other in IC50: 14 nM for the first, 19 nM for the second.

First: Cc1cc2c(c(-c3cc(F)c4c(c3C)CCCO4)c1[C@H](OC(C)(C)C)C(=O)O)CCN2C(=O)c1ccc2c(c1)CCO2 (atropisomer, axis not shown) [Example 127, (S)-2-(tert-Butoxy)-2-((R)-1-(2,3-dihydrobenzofuran-5-carbonyl)-4-(8-fluoro-5-methylchroman-6-yl)-6-methylindolin-5-yl)acetic acid]
Second: Cc1ccc(C(=O)N2CCc3c2cc(C)c([C@H](OC(C)(C)C)C(=O)O)c3-c2cc(F)c3c(c2C)CCCO3)cc1Cl (atropisomer, axis not shown) [Example 115, (S)-2-(tert-Butoxy)-2-((R)-1-(3-chloro-4-methylbenzoyl)-4-(8-fluoro-5-methylchroman-6-yl)-6-methylindolin-5-yl)acetic acid]
The IC50 of the first is 2.5-fold lower: 2 nM for the first, 5 nM for the second.

First: Cc1cc2c(c(-c3cc(F)c4c(c3C)CCCO4)c1[C@H](OC(C)(C)C)C(=O)O)CCN2C(=O)c1cccc2c1OCCO2 (atropisomer, axis not shown) [Example 83, (S)-2-(tert-Butoxy)-2-((R)-1-(2,3-dihydrobenzo[b][1,4]dioxine-5-carbonyl)-4-(8-fluoro-5-methylchroman-6-yl)-6-methylindolin-5-yl)acetic acid]
Second: Cc1ccccc1C(=O)N1CCc2c1cc(C)c([C@H](OC(C)(C)C)C(=O)O)c2-c1cc(F)c2c(c1C)CCCO2 (atropisomer, axis not shown) [Example 53, (S)-2-(tert-Butoxy)-2-((R)-4-(8-fluoro-5-methylchroman-6-yl)-6-methyl-1-(2-methylbenzoyl)indolin-5-yl)acetic acid]
The IC50 of the first is 2.3-fold higher: 7 nM for the first, 3 nM for the second. The second is the more potent here.

Going from `Cc1cc(F)ccc1Cn1ccc2c(-c3cc(F)c4c(c3C)CCCO4)c([C@H](OC(C)(C)C)C(=O)O)c(C)cc21` (atropisomer, axis not shown) [Example 199, (S)-2-(tert-Butoxy)-2-((R)-1-(4-fluoro-2-methylbenzyl)-4-(8-fluoro-5-methylchroman-6-yl)-6-methyl-1H-indol-5-yl)acetic acid] to `Cc1cc2c(ccn2Cc2ccccn2)c(-c2cc(F)c3c(c2C)CCCO3)c1[C@H](OC(C)(C)C)C(=O)O` (atropisomer, axis not shown) [Example 201, (S)-2-(tert-Butoxy)-2-((R)-4-(8-Fluoro-5-methylchroman-6-yl)-6-methyl-1-(pyridin-2-ylmethyl)-1H-indol-5-yl)acetic acid], the IC50 rises from 42 nM to 80 nM (1.9-fold).

First: Cc1ccc(-c2c3c(cc(C)c2C(OC(C)(C)C)C(=O)O)N(C2CCCCC2)CC3)cc1 (centres unmarked) [Example 4, 2-(tert-Butoxy)-2-(1-cyclohexyl-6-methyl-4-(p-tolyl)indolin-5-yl)acetic acid]
Second: Cc1ccc(-c2c3c(cc(C)c2C(OC(C)(C)C)C(=O)O)N(C(=O)C2CCCCC2)CC3)cc1 (centres unmarked) [Example 8, 2-(tert-Butoxy)-2-(1-(cyclohexanecarbonyl)-6-methyl-4-(p-tolyl)indolin-5-yl)acetic acid]
The IC50 of the first is 500-fold higher: 7520 nM for the first, 15 nM for the second. The second is the more potent here.

`Cc1ccc(-c2c3c(cc(C)c2[C@H](OC(C)(C)C)C(=O)O)N(C(=O)c2ccccc2F)CC3)cc1` [Example 18, (S)-2-(tert-Butoxy)-2-(1-(2-fluorobenzoyl)-6-methyl-4-(p-tolyl)indolin-5-yl)acetic acid] and `COc1ccccc1C(=O)N1CCc2c1cc(C)c([C@H](OC(C)(C)C)C(=O)O)c2-c1ccc(C)cc1` [Example 17, (S)-2-(tert-Butoxy)-2-(1-(2-methoxybenzoyl)-6-methyl-4-(p-tolyl)indolin-5-yl)acetic acid] are the same in IC50: 11 nM for the first, 11 nM for the second.

`COc1ccc(Cl)cc1C(=O)N1CCc2c1cc(C)c([C@H](OC(C)(C)C)C(=O)O)c2-c1cc(F)c2c(c1C)CCCO2` (atropisomer, axis not shown) [Example 50, (S)-2-(tert-Butoxy)-2-((R)-1-(5-chloro-2-methoxybenzoyl)-4-(8-fluoro-5-methylchroman-6-yl)-6-methylindolin-5-yl)acetic acid] and `Cc1cc2c(c(-c3cc(F)c4c(c3C)CCCO4)c1[C@H](OC(C)(C)C)C(=O)O)CCN2C(=O)c1ccc(Cl)cc1F` (atropisomer, axis not shown) [Example 138, (S)-2-(tert-Butoxy)-2-((R)-1-(4-chloro-2-fluorobenzoyl)-4-(8-fluoro-5-methylchroman-6-yl)-6-methylindolin-5-yl)acetic acid] are the same in IC50: 5 nM for the first, 5 nM for the second.

First: Cc1cc2c(c(-c3cc(F)c4c(c3C)CCCO4)c1[C@H](OC(C)(C)C)C(=O)O)CCN2C(=O)c1cc(Cl)cc(C(F)(F)F)c1 (atropisomer, axis not shown) [Example 147, (S)-2-(tert-Butoxy)-2-((R)-1-(3-chloro-5-(trifluoromethyl)benzoyl)-4-(8-fluoro-5-methylchroman-6-yl)-6-methylindolin-5-yl)acetic acid]
Second: Cc1cc2c(c(-c3cc(F)c4c(c3C)CCCO4)c1[C@H](OC(C)(C)C)C(=O)O)CCN2C(=O)c1cc(C(F)(F)F)cc(C(F)(F)F)c1 (atropisomer, axis not shown) [Example 133, (S)-2-((R)-1-(3,5-Bis(trifluoromethyl)benzoyl)-4-(8-fluoro-5-methylchroman-6-yl)-6-methylindolin-5-yl)-2-(tert-butoxy)acetic acid]
The IC50 of the first is 3.9-fold lower: 17 nM for the first, 67 nM for the second.

First: CC(=O)Nc1cccc(C(=O)N2CCc3c2cc(C)c([C@H](OC(C)(C)C)C(=O)O)c3-c2cc(F)c3c(c2C)CCCO3)c1 (atropisomer, axis not shown) [Example 78, (S)-2-((R)-1-(3-Acetamidobenzoyl)-4-(8-fluoro-5-methylchroman-6-yl)-6-methylindolin-5-yl)-2-(tert-butoxy)acetic acid]
Second: Cc1cc2c(ccn2C(=O)c2ccc(F)c(F)c2)c(-c2cc(F)c3c(c2C)CCCO3)c1[C@H](OC(C)(C)C)C(=O)O (atropisomer, axis not shown) [Example 203, (S)-2-(tert-Butoxy)-2-((R)-1-(3,4-difluorobenzoyl)-4-(8-fluoro-5-methylchroman-6-yl)-6-methyl-1H-indol-5-yl)acetic acid]
The IC50 of the first is 19-fold higher: 310 nM for the first, 16 nM for the second.

Going from `COc1ccc(C(=O)N2CCc3c2cc(C)c([C@H](OC(C)(C)C)C(=O)O)c3-c2ccc3c(c2C)CCCO3)c(OC)c1` (atropisomer, axis not shown) [Example 185, (S)-2-(tert-Butoxy)-2-((R)-1-(2,4-dimethoxybenzoyl)-6-methyl-4-(5-methylchroman-6-yl)indolin-5-yl)acetic acid] to `Cc1ccc(-c2c3c(cc(C)c2C(OC(C)(C)C)C(=O)O)N(C(=O)Nc2ccc(F)cc2)CC3)cc1` (centres unmarked) [Example 7, 2-(tert-Butoxy)-2-(1-((4-fluorophenyl)carbamoyl)-6-methyl-4-(p-tolyl)indolin-5-yl)acetic acid], the IC50 rises from 9 nM to 3010 nM (330-fold). The first is the more potent here.
